In patent US10183011B2, “Anti-depression compounds” (Board of Regents of the University of Texas System, priority 2009, dated 2019):
Entries after “also recorded” stand apart in the source; their conditions may differ.

Assays:
[1] = Brain and blood levels three weeks after MPTP administration (LC/MS/MS); type: in vivo, mouse (C57BL/6); settings: 21 days i.p. dosing after MPTP
Protocol: Data are expressed as mean±SEM. Three animals were tested per group.
C57BL/6 mice treated with MPTP and then dosed IP with compound for 21 days were utilized for pharmacokinetic (PK) analysis of total P7C3, P7C3A20 and Dimebon levels in plasma and brain. In a separate set of experiments designed to test the ability of new P7C3 analogs to cross the blood brain barrier, C57BL/6 mice were dosed IP a single time with compounds at 10 mg/kg. P7C3, P7C3A20 and Dimebon were formulated for administration as described above. Analogs were formulated in 5% Dextrose, pH 7.4, containing 5% DMSO and 10% Cremophor EL with the exception of P7C3-S8 which required 10% DMSO and 20% Cremophor EL dissolved in 5% Dextrose for delivery. Six hours after the final compound dose, animals were given an inhalation overdose of CO2 and whole blood and brain collected. Plasma was prepared from blood and was stored along with the brain tissue at −80° C. until analysis. […] The supernatant was then analyzed by LC/MS/MS. […] The limit of quantitation (LOQ) was defined as the lowest concentration at which back calculation yielded a concentration within 20% of the theoretical value and above the LOD signal. […] Compound levels were monitored by LC/MS/MS using an AB/Sciex (Framingham, Mass.) 3200 Qtrap mass spectrometer coupled to a Shimadzu (Columbia, Md.) Prominence LC.

aged Fisher 344 rats = test: Aged rats: hippocampal neurogenesis, Morris water maze, apoptosis, body weight; type: in vivo, rat (Fisher 344)
Protocol: FIG. 20A, FIG. 20B, FIG. 20C, FIG. 20D and FIG. 20E: Effect of Example 45 Compound in aged rats. (FIG. 20A) Example 45 Compound (20 mg/kg/d, i.p.) and BrdU (50 mg/kg, i.p.) were administered daily for 7 days to 12-18 month old Fisher 344 rats (n=4 in each group). P7C3 promoted neural precursor cell proliferation by roughly 5 fold compared to vehicle. (*p<0.001, Students t test). […] These micrographs were taken at the same magnification. Scale bar=[…]. Data are expressed as mean+/−SEM. […] Data are expressed as mean+/−SEM. […] Data are expressed as mean+/−SEM.
Many more of the BrdU-labeled cells were noted to have migrated into the granular layer in Example 45 Compound-treated rats in comparison to vehicle treated animals, consistent with their functional incorporation into the dentate gyrus as properly wired neurons. The scale bar represents […]. […] The scale bar represents […]. […] In all graphs data are expressed as mean±SEM.
It was first evaluated whether Example 45 Compound would enhance hippocampal neurogenesis in aged rats as it does in adult mice. Rats were injected with a daily, IP dose of either […] of Example 45 Compound or vehicle, coinjected with a daily dose of BrdU, and then sacrificed after 7 days for immunohistochemistry. […] Having observed proneurogenic efficacy of Example 45 Compound in this short term assay, it was then tested whether prolonged administration of Example 45 Compound might ameliorate age-related decline in cognition by subjecting 18-month-old rats to daily administration of either […] of Example 45 Compound or vehicle only for 2 months. Animals of both groups were further subjected to weekly IP administration of BrdU (50 mg/kg) for later immunohistochemical measurements of hippocampal neurogenesis. As a control, both Example 45 Compound- and vehicle-treated groups were confirmed to display equal ability to physically participate in the task, and learn the task, as shown by decreased latency times to find the hidden platform over the 5 day training period, both before and after 2 months of treatment (FIG. 20B). Moreover, neither swim speed (FIG. 20C) nor locomotor activity (FIG. 20D) varied with age or treatment paradigm.
After 2 months of compound or vehicle administration, cognitive ability was assessed blind to treatment group by removing the goal platform. Animals of the Example 45 Compound-treated group retained a statistically significant improvement in ability to navigate to the region of the missing platform, as evidenced by performance in the probe test.
After behavioral testing, animals were sacrificed for immunohistochemical detection of BrdU and CCSP3. […] Next it was tested whether Example 45 Compound-mediated preservation of body weight in aged rats operates via central or peripheral modes of action.

[2] = tested on: Ghsr-null and wild-type mice; test: Social interaction test after CSDS; type: in vivo, mouse
Text: FIG. 41. Effects of P7C3 on CSDS-induced depressive-like behavior, as measured by the social interaction test. (a, b) Times spent in the interaction zone with target present for wild-type (a) and Ghsr-null (b) mice. (c, d) Times spent in the corners by wild-type (c) and Ghsr-null (d) mice. Group sizes indicated. *P<0.05, **P<0.01, as compared to respective vehicle-treated control group.
Next, P7C3 and two chemical analogs were employed to investigate whether P7C3-mediated preservation of ventral DG neurogenesis during CSDS might correlate with an antidepressant-like behavioral effect. […] Conversely, the analog P7C3-S184 (Example 178) replaces bromines on the carbazole moiety with chlorines and the aniline moiety with a naphthyl amine, leaving the analog completely devoid of neuroprotective activity.
CSDS was performed similar to methods used previously in the lab (J. C. Chuang et al., Ghrelin mediates stress-induced food-reward behavior in mice. J Clin Invest 121, 2684 (2011)). Test mice were housed individually in large cages paired with a CD1 aggressor mouse, separated by a plastic divider with holes so as to allow sensory contact. For 5 min a day, the plastic divider was removed, exposing test mice to the CD1 mouse. After 5 min of exposure to the CD1 mouse, test mice were again separated and paired with a new CD1 mouse for the remainder of the 24 hours. This process was repeated for 10 days. Following the 5 min sensory contact on the 10th day, mice were separated and singly housed prior to social interaction test. Control mice were housed in equivalent cages with members of the same strain and handled daily. The social interaction test consists of placing mice in an arena with a small cage at one end. The movements of test mice were tracked for 2.5 min in the absence of another mouse, followed by 2.5 min in the presence of a novel CD1 mouse, or the “target”. Ethovision 3.0 software (Noldus, Leesburg, Va.) measured the duration spent in the interaction zone or in the corners. As done previously, data is presented as time spent in the interaction zone when the target is present or time spent in the corners when the target is present (J. C. Chuang et al., Ghrelin mediates stress-induced food-reward behavior in mice. J Clin Invest 121, 2684 (2011)).

With `Cc1ccc2c(c1)c1c(n2CCc2ccc(C)nc2)CCN(C)C1` [Dimebon, 2,3,4,5-Tetrahydro-2,8-dimethyl-5-(2-(6-methyl-3-pyridyl)ethyl)-1H-pyrido(4,3-b)indole, reference compound] the “brain accumulation relative to other compound” value [1] was “comparable levels of brain accumulation to P7C3A20; also recorded: equivalent to P7C3”.

In the case of `OC(CNc1ccccc1)Cn1c2ccc(Br)cc2c2cc(Br)ccc21` (stereo not drawn) [Example 45 Compound], the “apoptotic cells in the dentate gyrus” value (aged Fisher 344 rats; after 2 months of treatment) is reported as “statistically significant reduction in the number of CCSP3-positive cells”, the “level of BrdU-positive neurons in the dentate gyrus versus vehicle” value (aged Fisher 344 rats; after 2 months of treatment) is reported as 3 fold and the “postfasting blood glucose levels” value (aged Fisher 344 rats; aged rats) is reported as “had no effect on postfasting blood glucose levels”. For the same molecule, the “body weight with aging” value (aged Fisher 344 rats; aged rats, 2 months of treatment) was “helped rats maintain stable body weight with aging”, the “increase in BrdU labeling in the dentate gyrus relative to vehicle” value (aged Fisher 344 rats; daily IP for 7 days, aged rats) was 500% and the “crossings of the location previously containing the platform” value (aged Fisher 344 rats; probe test after 2 months of treatment) was “significantly more often than vehicle-treated rats”. For the same molecule, the “percentage of time in the general goal area (quadrant previously containing the platform)” value (aged Fisher 344 rats; probe test after 2 months of treatment, vehicle 28.1%±2.6%) was 35.5%±2.2%.

For `OC(CNc1cccc2ccccc12)Cn1c2ccc(Cl)cc2c2cc(Cl)ccc21` (stereo not drawn) [Example P7C3-S184], the “depression-like behavior, social interaction test” value (from here on “depression-like behavior”) ([2]; CSDS-exposed Ghsr-null mice) was “had no effect on stress-induced depressive-like behavior in either genotype” and the “depression-like behavior” value ([2]; CSDS-exposed wild-type mice) was “had no effect on stress-induced depressive-like behavior in either genotype”.

For `COc1cccc(NCC(F)Cn2c3ccc(Br)cc3c3cc(Br)ccc32)c1` (stereo not drawn) [Example P7C3A20, N-(3-(3,6-dibromo-9H-carbazol-9-yl)-2-fluoropropyl)-3-methoxyaniline], the “brain accumulation relative to other compound” value [1] was “less than one-tenth the concentration of P7C3; also recorded: about one-tenth”.

In the case of `OC(CNc1ccccc1)Cn1c2ccc(Br)cc2c2cc(Br)ccc21` (stereo not drawn) [Example P7C3], the “neural precursor cell proliferation (BrdU) compared to vehicle” value (aged Fisher 344 rats; daily i.p. for 7 days, 12-18 month old Fisher 344 rats) is reported as “roughly 5 fold”, the “depression-like behavior” value ([2]; CSDS-exposed Ghsr-null mice) is reported as “showed antidepressant efficacy” and the “depression-like behavior” value ([2]; CSDS-exposed wild-type mice) is reported as “had no significant effect on depression-like behavior”. The “social interaction test performance” value ([2]; non-CSDS-exposed control mice) was “Neither P7C3 nor the two tested analogs influenced social interaction test performance”.
